{"source": "paper PMC11222147", "about": "“Host defence peptide plectasin targets bacterial cell wall precursor lipid II by a calcium-sensitive supramolecular mechanism” (Nature Microbiology, 2024)", "key": {"S. pyogenes M3": {"system": "S. pyogenes M3", "assay": "MIC assays under standard conditions", "assay_type": "cell-based, Streptococcus pyogenes", "details": "Supplementary Table 1; cation-adjusted MHB + 5% lysed horse blood, 5% CO2, 20–24 h", "method": "Plectasin and analogues were serially diluted in cation-adjusted Mueller–Hinton broth (MHB) in round-bottom polypropylene 96-well plates (50 µl per well). Selected bacterial strains were grown from glycerol stocks on blood agar plates. Individual colonies were inoculated in TSB and incubated at 37 °C while shaking until OD600 reached 0.5. Bacterial suspensions were then diluted 100 times in cation-adjusted MHB and distributed (50 μl per well) over the microplate containing the diluted plectasin solutions. Plates were covered by a gas-permeable adhesive membrane and incubated at 37 °C while shaking. MICs were determined by visual inspection after 16–20 h (Staphylococcus) or 20–24 h (Streptococcus). For Streptococcus strains, the broth was additionally supplemented with 5% lysed horse blood, and the microplates were incubated under 5% CO2 atmosphere. In the assays, we used the following strains: S. simulans, S. pneumoniae serotype 8, S. pneumoniae ATCC6305 and Streptococcus pyogenes M3."}, "mammalian cells": {"system": "mammalian cells", "details": "cited from earlier work"}, "S. simulans": {"system": "S. simulans", "assay": "DPH anisotropy membrane fluidity measurements", "assay_type": "cell-based, Staphylococcus simulans", "details": "intact S. simulans cells, 1 µM plectasin, 37 °C, biological triplicates", "method": "Preparation of S. simulans stock solutions was done as described above for bacterial permeabilization in PBS. About 1 ml of a cell suspension of OD600 = 0.1 in PBS was treated with 1 µM plectasin and incubated at 37 °C. All assays were performed on a Cary Eclipse (FL0904M005) fluorometer fitted with a manual polarizer accessory (Varian). Measurements were conducted at 37 °C under constant stirring in a 4 × 10 mm quartz cuvette. About 10 µM DPH was added from a 1 mM stock in dimethyl sulfoxide (bringing the final dimethyl sulfoxide concentration to 1 vol%) and incubated for 5 min. Fluorescence was excited with 380 nm light (10 nm slit) and recorded between 430 and 520 nm (10 nm slit) with 0.5 s averaging time and data interval of 1.66 nm per point. Fluorescence anisotropy was calculated using the maximum intensity of each spectrum according to the following equation (where IVV and IVH represent the fluorescence intensity using parallel and orthogonal excitation and emission polarization filters, respectively): r=IVV−IVH/IVV+2IVH"}, "S. simulans 22": {"system": "S. simulans 22", "assay_type": "cell-based, Staphylococcus simulans", "details": "for MIC: cation-depleted MHB + 0.5 mM MgCl2 + 10 µM ZnSO4", "method": "Cation-depleted MHB was prepared as previously described[18] and supplemented with MgCl2 (0.5 mM) and ZnSO4 (10 µM). Plectasin was serially diluted twofold over a 96-well polypropylene plate. Serial dilutions of Ca^2+ in calcium-depleted medium were subsequently added to the wells containing the plectasin dilution series, followed by addition of bacterial suspensions. MICs were determined by visual inspection after 16–20 h (Staphylococcus). The effect of reduced Ca^2+ levels on S. simulans growth in the absence of plectasin was assessed by monitoring growth at 37 °C by OD600 over 18 h (Supplementary Fig. 4)."}}, "note": "Where two headings read alike, the source gives them in different places."}
{"smiles": "CC[C@H](C)[C@@H]1NC(=O)[C@H](CO)NC(=O)[C@H](CCCCN)NC(=O)[C@@H]2CSSC[C@@H](C(=O)N[C@@H](Cc3ccc(O)cc3)C(=O)O)NC(=O)[C@H](CCCCN)NC(=O)[C@@H]3CSSC[C@H](NC(=O)[C@H](CCC(N)=O)NC(=O)[C@H](CCSC)NC(=O)[C@H](CC(=O)O)NC(=O)[C@H](CC(=O)O)NC(=O)[C@H](CCC(=O)O)NC(=O)[C@H](CC(=O)O)NC(=O)[C@H](Cc4c[nH]c5ccccc45)NC(=O)[C@@H]4CCCN4C(=O)CNC(=O)[C@H](CC(N)=O)NC(=O)[C@@H](NC(=O)CNC(=O)[C@H](Cc4ccccc4)NC(=O)CN)CSSC[C@H](NC(=O)[C@H](Cc4ccc(O)cc4)NC(=O)CNC(=O)CNC(=O)[C@H](CCCCN)NC(=O)[C@H](Cc4ccc(O)cc4)NC(=O)CNC(=O)[C@H](CCCCN)NC1=O)C(=O)N[C@@H](C)C(=O)N[C@@H](CCCCN)C(=O)NCC(=O)NCC(=O)N[C@@H](Cc1ccccc1)C(=O)N[C@@H](C(C)C)C(=O)N3)C(=O)N[C@@H](Cc1c[nH]cn1)C(=O)N[C@@H](CC(N)=O)C(=O)N[C@@H](Cc1c[nH]cn1)C(=O)N2", "note": "[Plectasin wt]", "values": [{"measurement": "Minimum inhibitory concentration, S. pyogenes M3", "setting": "S. pyogenes M3", "value": "≤ 0,012 μg/mL"}, {"measurement": "toxicity against mammalian cells", "setting": "mammalian cells", "value": "lack of plectasin toxicity against mammalian cells"}, {"measurement": "DPH fluorescence anisotropy (membrane fluidity)", "setting": "S. simulans", "value": "decrease in the fluorescence anisotropy"}, {"measurement": "improvement of antimicrobial activity with increasing Ca^2+ concentration", "setting": "S. simulans 22; Ca^2+ variable assay", "value": "4-8 fold"}, {"measurement": "MIC", "setting": "S. simulans 22; Calcium 0 mM", "value": 12.5, "unit": "µg/mL"}, {"measurement": "MIC", "setting": "S. simulans 22; Calcium 0.31 mM", "value": 1.56, "unit": "µg/mL"}, {"measurement": "MIC", "setting": "S. simulans 22; Calcium 0.5 mM", "value": 1.56, "unit": "µg/mL"}, {"measurement": "MIC", "setting": "S. simulans 22; Calcium 0.63 mM", "value": 1.56, "unit": "µg/mL"}, {"measurement": "MIC", "setting": "S. simulans 22; Calcium 1.25 mM", "value": "1.56 to 3.13", "unit": "µg/mL"}, {"measurement": "MIC", "setting": "S. simulans 22; Calcium 2.5 mM", "value": 3.13, "unit": "µg/mL"}]}
